In EP1210336B1, “SUBSTITUTED BENZIMIDAZOLES AS NON-NUCLEOSIDE INHIBITORS OF REVERSE TRANSCRIPTASE” (THE UNITED STATES OF AMERICA, as represented by the …, priority 1999, dated 2001):
“And” between values parts separate entries of the source, which are not always exact repeats. Identical values can stand only once. Like-named read-outs stand apart in the source and are kept apart here.

Tests used:
WT virus (NL4-3) = assay: microbe, parasite or virus in culture; format: cell-based, HIV-1; conditions: for EC50: read-out: EC50; for cytotoxicity and anti-viral effect (summary graph): Figures 10-12, result in words
Experimental: Evaluation of these compounds for the inhibition of HIV-1 was determined as the fifty percent cell culture inhibitory concentration (CIC50) in CEMSS cell culture with WT virus (NL4-3).
(§1) In this Example, the antiviral and cellular toxicity of NNRTIs was investigated, using the cytopathic cell killing assay described by Yang (Yang et al., "Characteristics of a Group of Non-nucleoside Reverse Transcriptase Inhibitors with Structural Diversity and Potent Anti-Human Immunodeficiency Virus Activity," Leukemia 9:S75-S85 [1995]). Briefly, in this method cells (e.g., the CEM-SS cell line, available from the NIAID AIDS Research and Reference Program [ARRRP]) were seeded at a density of 5 x 10^3 cells/well, into the wells of a 96-well microtiter plate. The cells were then infected with HIV virus (either mutant or WT), at a multiplicity of infection (MOI) previously determined to provide complete cell killing by 6 days of culture post-infection (e.g., MOI of 0.01-0.05). Each of the HIV isolates was pre-titered to induce equivalent levels of infection based on cell killing or virus production, prior to their use in these assays. A range of test compound concentrations was added to the wells in triplicate (e.g., serial half-log dilutions) to evaluate inhibition of HIV infection. Controls for each assay included drug controls (drug colorimetric control wells), drug cytotoxicity control wells (cells with drug), virus control wells (cells with virus), and cell viability controls (cells only). Positive control drugs (e.g., AZT and ddC) were also run in parallel.
(§2) After six days of incubation at 37°C, cell viability was determined spectrophotometrically at 450 nm for each well, using the metabolic reduction of XTT to a soluble colored formazan. (See, Gartner and Popovic, "Virus Isolation and Production, in Aldovini and Walker (eds.), Techniques in HIV Research, Stockton Press, NY, pp. […] [1991]; and Nara and Fischinger, "Quantitative Infectivity Assay for HIV-1 and HIV-2," Nature 332:469-470 [1988]).
(§3) The in vitro therapeutic index (TI50) was defined as the fold-difference between the EC50 and IC50. The results for the various compounds are included in Figures 8 and 19.

NL4-3 (WT) = assay: Cytopathic cell killing assay, cross-resistance profile, infected MT-4 cells; format: cell-based, HIV-1
Source text: (§4) The various HIV isolates tested in the Figures are those corresponding to wild-type virus (NL4-3) and the other strains listed by their RT mutations. The three 4xAZT isolates included in the Figures represent AZT drug-resistant variants. For example, the 4xAZT/L100I isolate has five mutations: four mutations confer increased resistance to AZT, and the other mutation is located within the NNRTI binding pocket. TZB and nevir. (nevirapine) are two well-known NNRTIs, included in this experiment for comparison purposes. […]
as §1, §2, §3

HIV-1 variant Y181C = assay: as above; format: cell-based; conditions: isolate Y181C
Source text: as §4, §1, §2, §3

HIV-1 variant L100I = assay: as above; format: cell-based; conditions: isolate L1001
Source text: as §4, §1, §2, §3

HIV-1 variant K101E = assay: as above; format: cell-based
Source text: as §4, §1, §2, §3

HIV-1 variant V108I = assay: as above; format: cell-based
Source text: as §4, §1, §2, §3

HIV-1 variant K103N = assay: as above; format: cell-based; conditions: isolate K103N
Source text: as §4, §1, §2, §3

HIV-1 WT RT = biological target: T1, HIV-1 WT RT (Human immunodeficiency virus type 1 group M subtype B, UniProt P03366); assay: biochemical; conditions: for inhibition at 10 µM: 10 µM drug concentration; for IC50: read-out: IC50
T1 construct: purified RT protein (0.015 mg/mL) was incubated in a 100 µL reaction mixture

HIV-1 variant Y188C = assay: Cytopathic cell killing assay, cross-resistance profile, infected MT-4 cells; format: cell-based; conditions: Table 10 (values in µM); isolate Y188C; read-out: EC50
Source text: as §4, §1, §2, §3

[1] = Table 11, CEMSS/NL4-3, NRVC = reduction in viral CPE not seen (footnote)
[2] = Human immunodeficiency virus 1, MT4, Table 9
[3] = Table 2, WT RT, read-out: %inhibn (10µM)
[4] = Table 3, WT RT, read-out: %inhibn (10 µM)
[5] = Table 1, WT RT, read-out: %inhibn (10µM)
[6] = Table 10 (values in µM), read-out: EC50

1-(2,6-Difluorobenzyl)-2-(2,6-difluorophenyl)-4-hydroxyl-benzimidazole [compound 52]
EC50 (WT virus (NL4-3); [1]): 630 nM

1-(2,6-Difluorobenzyl)-2-(2,6-difluorophenyl)-4-hydroxymethylbenzimidazole [compound 67]
EC50 (WT virus (NL4-3); [1]): 23 nM

1-(2,6-Difluorobenzyl)-2-(2,6-difluorophenyl)-4-isopropenylbenzimidazole [compound 66]
EC50 (WT virus (NL4-3); [1]): 1440 nM

1-(2,6-Difluorobenzyl)-2-(2,6-difluorophenyl)-benzimidazole-4-carbaldehyde [compound 68]
EC50 (WT virus (NL4-3); [1]): 120 nM

1-(2,6-Difluorobenzyl)-2-(2,6-difluorophenyl)benzimidazole-4-carboxylate [compound 64]
EC50 (µM) (WT virus (NL4-3); [1]): NRVC

1-(2,6-difluorobenzyl)-2-(2,6-difluorophenyl)-4-acetoxymethylbenzimidazole [compound 51]
EC50 (WT virus (NL4-3); [1]): 59 nM

1-(2,6-difluorobenzyl)-2-(2,6-difluorophenyl)-4-chloromethylbenzimidazole [compound 69]
EC50 (WT virus (NL4-3); [1]): 180 nM

1-(2,6-difluorobenzyl)-2-(2,6-difluorophenyl)-4-cyanobenzimidazole [compound 60]
EC50 (WT virus (NL4-3); [1]): 430 nM

1-(2,6-difluorobenzyl)-2-(2,6-difluorophenyl)benzimidazol-4-yl-methylamine [compound 71]
EC50 (WT virus (NL4-3); [1]): 37 nM

1-(2,6-difluorobenzyl)-2-(2,6-difluorophenyl)benzimidazole-4-carboxylic acid amide [compound 62]
EC50 (WT virus (NL4-3); [1]): 4900 nM

CC(C)=CCn1c(-c2c(F)cccc2F)nc2c(C)cccc21 [(X= CH3) R = prenyl, 1-(3,3-dimethylallyl)-2-(2,6-difluorophenyl)-4-methylbenzimidazole]
EC50 (NL4-3 (WT); Human immunodeficiency virus 1, NL43, MT4, Table 9, isolate NL4.3): 1.3 µM | EC50 (HIV-1 variant Y181C; [2]): > 20 µM | EC50 (HIV-1 variant L100I; [2]): 0.3 µM | EC50 (HIV-1 variant K101E; Human immunodeficiency virus 1, MT4, Table 9, isolate KIOIE): > 20 µM | EC50 (HIV-1 variant V108I; Human immunodeficiency virus 1, MT4, Table 9, isolate V1081): > 20 µM | EC50 (HIV-1 variant K103N; [2]): > 20 µM

Fc1cccc(F)c1-c1nc2ccccc2n1Cc1ccccc1 [compound 28, 1-benzyl-2-(2,6-difluorophenyl)benzimidazole]
inhibition at 10 µM (HIV-1 WT RT; [3]): 71%

Cc1cccc2c1nc(-c1c(F)cccc1F)n2Cc1ccccc1 [compound 29, 1-benzyl-2-(2,6-difluorophenyl)-4-methylbenzimidazole]
inhibition at 10 µM (HIV-1 WT RT; [3]): 87%

Cc1cccc2c1nc(-c1c(F)cccc1F)n2Cc1c(Cl)cccc1Cl [compound 30, 1-(2,6-dichlorobenzyl)-2-(2,6-difluorophenyl)-4-methylbenzimidazole]
inhibition at 10 µM (HIV-1 WT RT; [3]): 58%

Fc1cccc(F)c1COCc1nc2ccccc2n1Cc1c(F)cccc1F [compound 32, 1-(2,6-difluorobenzyl)-2-(2,6-difluorobenzyloxymethyl)benzimidazole]
inhibition at 10 µM (HIV-1 WT RT; [4]): 7%

Cc1cccc2c1nc(C(C)C)n2Cc1c(F)cccc1F [compound 34, 1-(2,6-difluorobenzyl)-2-isopropyl-4-methylbenzimidazole]
cytotoxicity and anti-viral effect (summary graph) (WT virus (NL4-3)): effective therapeutic dose | inhibition at 10 µM (HIV-1 WT RT; [4]): 53%

Cc1nc2ccccc2n1Cc1c(F)cccc1F [compound 35, 1-(2,6-difluorobenzyl)-2-methylbenzimidazole]
inhibition at 10 µM (HIV-1 WT RT; [4]): 22%

Cc1ccccc1-c1nc2ccccc2n1Cc1c(F)cccc1F [compound 36, 1-(2,6-difluorobenzyl)-2-(2-methylphenyl)benzimidazole]
inhibition at 10 µM (HIV-1 WT RT; [5]): 71%

Cc1cccc2c1nc(-c1cccc3ccccc13)n2Cc1c(F)cccc1F [compound 37, 1-(2,6-difluorobenzyl)-2-(1-naphthyl)-4-methylbenzimidazole]
inhibition at 10 µM (HIV-1 WT RT; [5]): 2%

Fc1cccc(F)c1Cn1c(-c2c(F)cccc2F)nc2cc(Br)ccc21 [compound 38, 1-(2,6-Difluorobenzyl)-2-(2,6-difluorophenyl)-5-bromobenzimidazole]
cytotoxicity and anti-viral effect (summary graph) (WT virus (NL4-3)): inactive

O=S(=O)(c1ccccc1)n1c(-c2c(F)cccc2F)nc2ccccc21 [compound 45]
inhibition at 10 µM (HIV-1 WT RT; [3]): 52%

Cc1cccc2c1nc(-c1c(F)cccc1F)n2S(=O)(=O)c1ccccc1 [compound 46]
inhibition at 10 µM (HIV-1 WT RT; [3]): 39%

CN(C)c1cccc2c1nc(-c1c(F)cccc1F)n2Cc1c(F)cccc1F [compound 59, 1-(2,6-difluorobenzyl)-2-(2,6-difluorophenyl)-4-N,N dimethylaminobenzimidazole]
EC50 (NL4-3 (WT); Table 10 (values in µM), isolate NL4-3 (WT), read-out: EC50): 2.88 µM | EC50 (HIV-1 variant Y181C; [6]): > 100 µM | EC50 (HIV-1 variant L100I; [6]): 31.8 µM | EC50 (HIV-1 variant K103N; [6]): > 100 µM | EC50 (WT virus (NL4-3); Table 7, concentration reducing cell killing or virus production by 50%, HIV-1 WT): 2370 nM | EC50 (WT virus (NL4-3); [1]): 2370 nM | IC50 (HIV-1 WT RT; Table 7, HIV-1 WT RT): 40000 nM | %inhibn (1µM) (HIV-1 WT RT; Table 7, WT HIV-1 RT, 1 µM drug): 77% | IC50 (HIV-1 WT RT; Table 11, WT RT): 40000 nM

N=C(NO)c1cccc2c1nc(-c1c(F)cccc1F)n2Cc1c(F)cccc1F [compound 61, N-hydroxy 1-(2,6-difluorobenzyl)-2-(2,6-difluorophenyl)benzimidazole-4-carboxamidine]
EC50 (WT virus (NL4-3); Human immunodeficiency virus 1, NL43, CEM-SS, Table 11, CEMSS/NL4-3, NRVC = reduction in viral CPE not seen (footnote)): 190 nM

CN(C)C(=O)c1cccc2c1nc(-c1c(F)cccc1F)n2Cc1c(F)cccc1F [compound 63, 1-(2,6-difluorobenzyl)-2-(2,6-difluorophenyl)benzimidazole-4-carboxylic acid dimethylamide]
EC50 (µM) (WT virus (NL4-3); [1]): NRVC

CC(C)(O)c1cccc2c1nc(-c1c(F)cccc1F)n2Cc1c(F)cccc1F [compound 65, 1-(2,6-Difluorobenzyl)-2-(2,6-difluorophenyl)-4-benzimidazoyl-2-propanol]
EC50 (WT virus (NL4-3); [1]): 634000 nM

[N-]=[N+]=NCc1cccc2c1nc(-c1c(F)cccc1F)n2Cc1c(F)cccc1F [compound 70, 1-(2,6-difluorobenzyl)-2-(2,6-difluorophenyl)benzimidazol-4-yl-azidomethyl]
EC50 (NL4-3 (WT); Table 10 (values in µM), isolate NL4-3 (WT), listed as CH2-N3, read-out: EC50): 0.045 µM and 0.06 µM | EC50 (HIV-1 variant Y181C; [6]): 0.82 µM | EC50 (HIV-1 variant Y188C): 0.22 µM | EC50 (HIV-1 variant K101E; Table 10 (values in µM), isolate K101E, read-out: EC50): 0.6 µM | EC50 (HIV-1 variant V108I; Table 10 (values in µM), isolate V108l, read-out: EC50): 0.026 µM | EC50 (HIV-1 variant K103N; [6]): 1.48 µM | EC50 (WT virus (NL4-3); [1]): 45 nM

CC(=O)NCc1cccc2c1nc(-c1c(F)cccc1F)n2Cc1c(F)cccc1F [compound 72]
EC50 (µM) (WT virus (NL4-3); [1]): NRVC

CC(=O)N(C)Cc1cccc2c1nc(-c1c(F)cccc1F)n2Cc1c(F)cccc1F [compound 73, 1-(2,6-Difluorobenzyl)-2-(2,6-difluorophenyl)-4-(N-acetyl-N-methyl)-aminomethylbenzimidazole]
EC50 (WT virus (NL4-3); [1]): 580 nM

Cc1cccc2c1nc(-c1ccc(C#N)cc1)n2Cc1c(F)cccc1F [compound 4007]
inhibition at 10 µM (HIV-1 WT RT; [5]): 26%
